Experimental data reported in patent publication US20150038333A1, “PLANT PROTECTIVE COMPOSITION CONTAINING ALPHA-HYDROXY ACIDS” (HELMHOLTZ ZENTRUM MÜNCHEN DEUTSCHES FORSCHUNGSZENT -RUN FÜR …, priority 2011, published 2015).
Each block holds one compound with its values, some of them ahead of it.

What was measured:
UGT76B1 = target: T1, UGT76B1 (Arabidopsis thaliana, UniProt Q9C768); assay: In vitro glucosyltransferase activity assay of recombinant UGT76B1; type: biochemical; details: 0.5 mM aglycone, 5 mM UDP-glucose, 1 hour at 30° C., analyzed by mass spectrometry
T1 construct: The UGT76B1 open reading frame was amplified with the same primers as used for the construction of the overexpression lines; made in house
T1 sequence (Q9C768 1-447): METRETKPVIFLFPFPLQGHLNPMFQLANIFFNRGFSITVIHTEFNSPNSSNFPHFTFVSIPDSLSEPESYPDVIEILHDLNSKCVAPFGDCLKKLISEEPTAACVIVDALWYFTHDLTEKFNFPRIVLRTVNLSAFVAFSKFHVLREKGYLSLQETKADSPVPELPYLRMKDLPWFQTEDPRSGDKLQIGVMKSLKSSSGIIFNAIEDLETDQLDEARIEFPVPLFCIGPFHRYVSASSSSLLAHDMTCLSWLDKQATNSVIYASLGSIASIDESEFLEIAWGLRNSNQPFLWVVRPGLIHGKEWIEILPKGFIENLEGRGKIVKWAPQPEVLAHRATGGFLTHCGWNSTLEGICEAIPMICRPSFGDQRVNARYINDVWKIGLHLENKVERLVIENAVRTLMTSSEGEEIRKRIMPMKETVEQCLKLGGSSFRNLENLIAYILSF
From the text: A glutathione-S-transferase (GST)-UGT761 expression plasmid was constructed using pDEST15 (Invitrogen, Germany). The UGT76B1 open reading frame was amplified with the same primers as used for the construction of the overexpression lines. The recombinant protein was affinity-purified using a glutathione-coupled sepharose beads according to the manufacturer's instructions (GE Healthcare, Germany), concentrated by membrane filtration (Amicon Ultra-4; Millipore, Germany) and supplemented with 20% glycerol for storage at −20° C. (Messner et al., 2003). To analyze the UGT enzyme activity assay mixtures contained 0.1 M Tris-HCl (pH 7.5), 5 mM UDP-glucose, 0.5 mM aglycone and about 1 μg fusion protein in a final volume of 50 μL. After incubation for 1 hour at 30° C. the reaction was stopped by addition of 200 μL methanol and cleared by centrifugation. Reactions were diluted 1:50 in 70% methanol (except for valic acid, which was used without dilution) and analyzed on a API4000 mass spectrometer using direct injection into the electrospray source at a flow rate of […]. 150 Scans were accumulated for each measurement in dual ion monitoring mode, which was adjusted to monitor ions at nominal m/z ratios of the corresponding expected substrate and product peaks with a mass range of ±5 Da.

[1] = tested on: defence marker genes PR1, PDF1.2 and VSP2; assay: Defense marker gene expression in Col-0 plants after spraying with α-hydroxy-acid (RTqPCR); type: in vivo, Arabidopsis; details: for expression of defense marker genes (PR1 and PDF1.2): 4-week-old Col-0 plants, 24 h after treatment, 1 mM in water, preliminary, two biological replicates
Method: Rosette leaves of the indicated age were collected. Total RNA was isolated using the RNeasy Plant Mini Kit (Qiagen, Germany). RNA integrity and amount was analyzed by gel electrophoresis and by spectrophotometry. One microgram of total RNA was reverse transcribed using a SuperScript II reverse transcription-PCR kit (Invitrogen; Germany) according to the manufacturer's instructions. Gene-specific primer pairs were designed using the Primer Express 3.0 software. […] Real time quantification was performed using a 7500 real time PCR system (Applied Biosystems, Germany). Individual PCR reaction mixtures contained 4 μL of diluted cDNA, 10 μL of Sybr Green Mastermix (Thermo Scientific, Germany) and […] of each primer in a final volume of 20 μL. In all experiments, three biological replicates of each sample and two technical (PCR) replicates were performed. The amount of target gene was normalized over the abundance of the constitutive UBQ5 (At3g62250) and S16 (At5g18380, At2g09990) genes. The stability of the reference genes was tested and normalization was performed using GeNorm (Vandesompele et al., 2002). For RTqPCR of infected material, plants were infected as described below. Three biological replicates were analyzed; each consisted of six individually infected leaves. Plant material was harvested before infection and mock treatments (time point 0) and at the indicated time points after treatment. Each experiment was repeated with similar results.
For isoleucic acid treatment, 4-week-old plants were sprayed with 0.5 or 1 mM isoleucic acid (diluted in water) or only water for mock treatments. Plants were covered with a plexiglass lid until the surface of the leaves became dry. The fifth to eighth true leaves of each plant were harvested 24 hours after treatment. Four leaves from three independent plants were pooled for each replicate and analyzed by real-time PCR.

[2] = tested on: P. syringae pv. tomato DC3000 (avrRpm1) (Ps-avir); assay: Bacterial growth in Arabidopsis leaves of wild-type plants sprayed with ILA before infection; type: in vivo, Pseudomonas syringae
Method: FIG. 14: Direct effect of exogenously applied ILA on pathogen defence. Bacterial growth in Arabidopsis leaves of wild-type plants sprayed with water (blank) or 1 mM ILA (dotted) 24 h or 72 h before infection. Plants were inoculated with 5*10^5 cfu ml^−1 of Ps-avir and bacteria (cfu cm^−2) were quantified 0 and 3 days after inoculation. The graphs represent the means and standard deviations of three replicates.
Bacterial strains used in this study include Pseudomonas syringae pv. tomato DC3000 (Ps), P. syringae pv. tomato DC3000 (avrRpm1) (Ps-avir). Bacteria were grown overnight at 28° C. in King's B medium with appropriate antibiotics and diluted to 5*10^5 cfu mL^−1 with 10 mM MgCl2 for plant inoculation. Whole leaves of 5- to 6-week-old plants were infiltrated using a 1-mL syringe without a needle. Control plants were infiltrated with 10 mM MgCl2. Leaf discs from control treated and infected plants were harvested from inoculated leaves at 0, 1 and 3 d after infiltration. Bacterial growth was assessed as described previously (Katagiri et al., 2002). For each time point, three samples were made by pooling six leaf discs from three different treated plants.

[3] = tested on: pathogen responsive genes PR1 and PR10; assay: Induction of defence genes in barley leaves (semiquantitative PCR); type: in vivo, Hordeum vulgare; details: 2-week-old plants sprayed with 1 mM ILA, 48 h after treatment
Method: Total RNA was isolated using the RNeasy Plant Mini Kit (Qiagen, Germany). RNA integrity and amount was analyzed by gel electrophoresis and by spectrophotometry. One microgram of total RNA was reverse transcribed using a QuantiTect reverse transcription-PCR kit (Qiagen; Germany) according to the manufacturer's instructions. The following gene-specific primer pairs were kindly provided by Corina Vlot: EF1A_Hv_f (5′-[…]-3′) and EF1A_Hv_r (5′-[…]-3′) for the barley reference gene EF1A; PR1_Hv_f (5′-[…]-3′) and PR1_Hv_r (5′-[…]-3′) for barley PR1; Hv, PR10_Hv_f (5′-[…]-3′) and PR10_Hv_r (5′-[…]-3′) for barley PR10. PCR fragments were amplified using the indicated number of PCR cycles (FIG. 17) and separated on a 2% agarose gel containing ethidium bromide.
For ILA treatment in barley, 2-week-old plants were sprayed with either 1 mM ILA or 0.25 mg/ml BTH (benzothiadiazole/BION™), dissolved in water with 0.01% tween. For mock treatment, plants were sprayed only with water containing 0.01% tween. Leaves were harvested 48 hours after treatment and analyzed by semiquantitative PCR.

[4] = leaves of four-week-old Col-0 plants, 24 h after spraying isoleucic acid solution

SMILES: CCC(O)(CC)C(=O)O [2-ethyl-2-hydroxybutyric acid]
- glucosylation by recombinant UGT76B1 (UGT76B1): no activity

SMILES: CCCCCCC(O)C(=O)O (stereo not drawn) [2-hydroxy-octanoic acid]
- expression of defense marker genes (PR1 and PDF1.2) [1]: can also induce

- glucosylation by recombinant UGT76B1 (UGT76B1): able to glucosylate
SMILES: CC(C)[C@H](O)C(=O)O [valic acid, (S)-(+)-2-hydroxy-3-methylbutyric acid]
- expression of defense marker genes (PR1 and PDF1.2) [1]: can also induce

SMILES: CCC(C)C(O)C(=O)O (stereo not drawn) [isoleucic acid, 2-hydroxy-3-methylpentanoic acid]
- glucosylation by recombinant UGT76B1 (UGT76B1): glucosylated
- PDF1.2 expression relative to mock (water) treatment [1, 4]: tendency for induction
- VSP2 expression relative to mock (water) treatment [1, 4]: only marginally suppressed
- PR1 expression relative to mock (water) treatment ([1]; leaves of four-week-old Col-0 plants, 24 h after spraying isoleucic acid solution (0.5 or 1 mM)): more than tenfold induced
- persistence of increased resistance after ILA spraying ([2]; 1 mM ILA sprayed 24 h or 72 h before Ps-avir infection): 1 to 3 days
- bacterial growth compared with mock treatment ([2]; 1 mM ILA sprayed 24 h or 72 h before infection with 5*10^5 cfu ml^-1 Ps-avir, bacteria quantified 3 days after inoculation): about four- to fivefold less bacterial growth
- PR1 transcript level in barley [3]: induces
- PR10 transcript level in barley [3]: induces
